From patent US20240391936A1, “TETRAHYDROTHIENO PYRIDINE DERIVATIVES AS DDRS INHIBITORS” (CHIESI FARMACEUTICI S.P.A., priority 2021, published 2024) come the findings set out here.

The target of assay [1] is T1, DDR1 (Homo sapiens, UniProt Q08345). Kind of assay: DDR1 binding assay (LanthaScreen Europium Kinase Binding assay). More on the design: purchased Carna Biosciences. The following applies: binding assay, 5 nM DDR1, 20 nM Kinase Tracer 178; Ki from IC50 by Cheng-Prusoff; read-out: Ki DDR1. In short, it runs like this: (§1)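 TR-FRET tracer-displacement format: 665/615 nm emission ratio (340 nm excitation) gave IC50 by 4-parameter fit, then Ki via Cheng-Prusoff. Each kinase at 5 nM with 2 nM Eu-anti-GST antibody and Tracer 178 (DDR1 20 nM, DDR2 10 nM), 1 h, room temperature, HEPES pH 7.5 buffer.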
T1 sequence (Q08345 19-913): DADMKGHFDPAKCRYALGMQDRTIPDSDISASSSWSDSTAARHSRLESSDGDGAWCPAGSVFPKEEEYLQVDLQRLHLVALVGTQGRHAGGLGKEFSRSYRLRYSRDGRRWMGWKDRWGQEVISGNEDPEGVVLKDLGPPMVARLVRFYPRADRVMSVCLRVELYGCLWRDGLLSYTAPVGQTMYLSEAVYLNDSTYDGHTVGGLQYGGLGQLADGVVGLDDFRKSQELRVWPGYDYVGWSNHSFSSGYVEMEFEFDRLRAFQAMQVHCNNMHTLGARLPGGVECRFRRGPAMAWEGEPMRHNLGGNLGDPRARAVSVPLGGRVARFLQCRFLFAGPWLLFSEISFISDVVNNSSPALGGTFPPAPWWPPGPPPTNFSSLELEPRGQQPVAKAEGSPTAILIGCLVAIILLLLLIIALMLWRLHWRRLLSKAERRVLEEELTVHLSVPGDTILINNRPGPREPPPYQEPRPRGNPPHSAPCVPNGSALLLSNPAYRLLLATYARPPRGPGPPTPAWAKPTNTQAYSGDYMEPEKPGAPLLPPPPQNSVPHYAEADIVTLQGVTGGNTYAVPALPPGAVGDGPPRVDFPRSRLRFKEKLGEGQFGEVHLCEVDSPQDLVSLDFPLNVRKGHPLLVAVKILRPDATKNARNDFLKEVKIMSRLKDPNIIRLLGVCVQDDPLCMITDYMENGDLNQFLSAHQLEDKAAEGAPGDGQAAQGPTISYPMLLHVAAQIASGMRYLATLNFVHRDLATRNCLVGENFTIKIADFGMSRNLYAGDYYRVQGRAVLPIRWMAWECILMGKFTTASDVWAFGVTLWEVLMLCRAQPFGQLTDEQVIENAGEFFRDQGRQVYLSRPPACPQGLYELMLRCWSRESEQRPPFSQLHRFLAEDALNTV
In general terms: Time-resolved FRET reads energy transfer from a long-lived donor to a nearby acceptor.

The target of assay [2] is T2, DDR2 (Homo sapiens, UniProt Q16832).
T2 sequence (Q16832 22-855): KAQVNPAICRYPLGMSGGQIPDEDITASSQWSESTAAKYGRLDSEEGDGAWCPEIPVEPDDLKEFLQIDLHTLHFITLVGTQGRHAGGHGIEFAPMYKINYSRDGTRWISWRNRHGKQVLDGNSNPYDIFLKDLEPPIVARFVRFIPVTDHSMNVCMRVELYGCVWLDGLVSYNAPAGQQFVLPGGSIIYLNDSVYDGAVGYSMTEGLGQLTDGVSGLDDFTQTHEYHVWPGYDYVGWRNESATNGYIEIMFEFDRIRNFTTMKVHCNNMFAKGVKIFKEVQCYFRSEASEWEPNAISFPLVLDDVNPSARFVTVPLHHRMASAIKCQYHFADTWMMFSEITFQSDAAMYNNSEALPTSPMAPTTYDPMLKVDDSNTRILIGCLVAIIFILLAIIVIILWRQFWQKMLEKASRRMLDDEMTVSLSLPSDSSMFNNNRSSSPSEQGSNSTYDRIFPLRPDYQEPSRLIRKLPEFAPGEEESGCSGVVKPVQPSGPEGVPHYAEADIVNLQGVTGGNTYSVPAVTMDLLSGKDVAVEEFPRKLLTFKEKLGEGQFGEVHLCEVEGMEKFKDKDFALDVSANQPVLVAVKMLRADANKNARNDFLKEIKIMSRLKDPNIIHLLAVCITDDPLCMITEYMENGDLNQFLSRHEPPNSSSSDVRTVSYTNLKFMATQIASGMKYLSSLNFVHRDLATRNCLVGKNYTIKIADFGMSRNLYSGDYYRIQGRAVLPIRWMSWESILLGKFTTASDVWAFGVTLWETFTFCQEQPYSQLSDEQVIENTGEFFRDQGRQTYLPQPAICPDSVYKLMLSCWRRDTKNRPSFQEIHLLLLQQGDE
Kind of assay: DDR2 binding assay (LanthaScreen Europium Kinase Binding assay). Set-up: purchased Life Technologies. The following applies: binding assay, 5 nM DDR2, 10 nM Kinase Tracer 178; Ki from IC50 by Cheng-Prusoff; read-out: Ki DDR2. In short, it runs like this: as §1

For assay [3], the target named is T1, DDR1. Kind of assay: DDR1 cell based assay (PathHunter U2OS DDR1 assay). The note with it: U2OS-DDR1 cells, bovine Type II Collagen 20 μg/ml. Set-up: host or cells: U2OS-DDR1 (PathHunter). In short, it runs like this: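 Receptor activation measured by enzyme-fragment complementation luminescence in engineered U2OS cells. Compound added 30 min before overnight challenge with 20 μg/ml bovine collagen II; data scaled between vehicle and collagen-stimulated controls, IC50 derived by four-parameter variable-slope fitting.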

In assay [4] the target is T2, DDR2. Description: DDR2 cell based assay (phospho-ELISA in HEK293T-DDR2 recombinant cells). Set-up: expressed in transfected cells; host or cells: HEK293T-DDR2 recombinant cells. The note with it: bovine Type II Collagen 50 μg/ml. How it is done:
The inhibition of DDR2 phosphorylation by compounds was evaluated in HEK293T-DDR2 recombinant cells by phospho-ELISA assay. Briefly, HEK293T-DDR2 cells were seeded in poly-D-lysine-coated 24-well plates at a density of 250.000 cells/well and incubated for 1.5 hours at 37° C. and 5% CO2 in DMEM+10% FBS. After that, the medium was changed to serum-free DMEM and cells were incubated for 3 hours. Then. test compounds were added at different concentrations 30 minutes before stimulation with bovine Type II Collagen at 50 μg/ml for further 3 hours. For DDR2 phospho-ELISA assay (DuoSet IC Human Phospho-DDR2; R&D Systems), protein extracts were obtained by adding 60 μl/well of lysis buffer prepared according to the manufacturer's instructions. Protein concentration in the samples was determined by BCA assay and the levels of phospho-DDR2 were determined following R&D Systems indications. Raw data were normalized to maximal inhibition control (0% for normalization) and positive control (100% for normalization; cells treated with […] collagen II) and IC50 parameters were calculated in GraphPad Prism 8.0 software, using sigmoidal dose-response curve fitting with variable slope.
(In general: An ELISA detects its analyte on a solid surface through an enzyme-linked reagent.)

With `O=C(Nc1ccc(CN2CCOCC2)c(C(F)(F)F)c1)c1csc2c1CCN(C(=O)c1cnc3ccccn13)C2` [Example 23, 6-(imidazo[1,2-a]pyridine-3-carbonyl)-N-(4-(morpholinomethyl)-3-(trifluoromethyl)phenyl)-4,5,6,7-tetrahydrothieno[2,3-c]pyridine-3-carboxamide], the inhibitory constant (Ki) at DDR1 [1] and on DDR2 [2] was under 25 nM throughout. Moreover, the IC50 (usually the concentration at which inhibition is half-maximal) against DDR1 [3] was under 25 nM; at DDR2 [4], 25 to 50 nM.
Turning to `O=C(Nc1cccc(C(F)(F)F)c1)c1csc2c1CCN(Cc1cnc3cnccn13)C2` [Example 84, 6-(imidazo[1,2-a]pyrazin-3-ylmethyl)-N-(3-(trifluoromethyl)phenyl)-4,5,6,7-tetrahydrothieno[2,3-c]pyridine-3-carboxamide], the Ki at DDR1 [1] and at DDR2 [2] was under 25 nM in each case. Further, the IC50 against DDR1 [3] and at DDR2 [4] was under 25 nM throughout.
Consider `CC1Cc2c(C(=O)Nc3cccc(C(F)(F)F)c3)csc2CN1Cc1cnc2cnccn12` (single isomer, unassigned) [Example 104, 6-(imidazo[1,2-a]pyrazin-3-ylmethyl)-5-methyl-N-(3-(trifluoromethyl)phenyl)-4,5,6,7-tetrahydrothieno[2,3-c]pyridine-3-carboxamide], for which the inhibitory constant (Ki) at DDR1 [1] and on DDR2 [2] was under 25 nM each time. Further, the 50% inhibitory concentration (IC50) is under 25 nM against DDR1 [3] and 50 to 80 nM on DDR2 [4].
Take `O=C(Nc1cc(F)cc(C(F)(F)F)c1)c1csc2c1CCN(C(=O)c1cnc3ccccn13)C2` [Example 46, N-(3-fluoro-5-(trifluoromethyl)phenyl)-6-(imidazo[1,2-a]pyridine-3-carbonyl)-4,5,6,7-tetrahydrothieno[2,3-c]pyridine-3-carboxamide]: the inhibition constant Ki on DDR1 [1] and at DDR2 [2] was under 25 nM throughout. The 50% inhibitory concentration (IC50) against DDR1 [3] and at DDR2 [4] was under 25 nM each time.
`O=C(Nc1cc(F)cc(C(F)(F)F)c1)c1csc2c1CCN(Cc1cnc3[nH]ccc3c1)C2` [Example 73, 6-((1H-pyrrolo[2,3-b]pyridin-5-yl)methyl)-N-(3-fluoro-5-(trifluoromethyl)phenyl)-4,5,6,7-tetrahydrothieno[2,3-c]pyridine-3-carboxamide]: the inhibition constant Ki (usually the equilibrium dissociation constant of an inhibitor or competing ligand from its target) was under 25 nM at DDR1 [1] and 25 to 50 nM at DDR2 [2]. The IC50 at DDR1 [3] and on DDR2 [4] was under 25 nM throughout.
Consider `O=C(Nc1cc(F)cc(OC(F)(F)F)c1)c1csc2c1CCN(Cc1cnc3[nH]ncc3c1)C2` [Example 174, 6-((1H-pyrazolo[3,4-b]pyridin-5-yl)methyl)-N-(3-fluoro-5-(trifluoromethoxy)phenyl)-4,5,6,7-tetrahydrothieno[2,3-c]pyridine-3-carboxamide], for which the Ki on DDR1 [1] and at DDR2 [2] was under 25 nM in each case. Also, the IC50 against DDR1 [3] was under 25 nM; at DDR2 [4], 50 to 80 nM.
On to `O=C(Nc1cc(CN2CCOCC2)cc(C(F)(F)F)c1)c1csc2c1CCN(C(=O)c1cnc3ccccn13)C2` [Example 20, 6-(imidazo[1,2-a]pyridine-3-carbonyl)-N-(3-(morpholinomethyl)-5-(trifluoromethyl)phenyl)-4,5,6,7-tetrahydrothieno[2,3-c]pyridine-3-carboxamide], for which the Ki on DDR1 [1] and on DDR2 [2] was under 25 nM in each case. Further, the IC50 against DDR1 [3] and on DDR2 [4] was under 25 nM throughout.
For the molecule `Cn1nc(C(C)(C)C)cc1NC(=O)c1csc2c1CCN(C(=O)c1cnc3ccccn13)C2` [Example 3, N-(3-(tert-butyl)-1-methyl-1H-pyrazol-5-yl)-6-(imidazo[1,2-a]pyridine-3-carbonyl)-4,5,6,7-tetrahydrothieno[2,3-c]pyridine-3-carboxamide], the Ki on DDR1 [1] and at DDR2 [2] was under 25 nM each time. Moreover, the IC50 against DDR1 [3] and on DDR2 [4] was under 25 nM throughout.
As to `O=C(Nc1cccc(C(F)(F)F)c1)c1csc2c1CCN(Cc1cnc3[nH]ccc3c1)C2` [Example 69, 6-((1H-pyrrolo[2,3-b]pyridin-5-yl)methyl)-N-(3-(trifluoromethyl)phenyl)-4,5,6,7-tetrahydrothieno[2,3-c]pyridine-3-carboxamide], the Ki at DDR1 [1] and on DDR2 [2] was under 25 nM each time. Also, the IC50 at DDR1 [3] was under 25 nM; on DDR2 [4], 25 to 50 nM.
As for `O=C(Nc1cccc(C(F)(F)F)c1)c1csc2c1CCN(Cc1ccnc3[nH]ccc13)C2` [Example 86, 6-((1H-pyrrolo[2,3-b]pyridin-4-yl)methyl)-N-(3-(trifluoromethyl)phenyl)-4,5,6,7-tetrahydrothieno[2,3-c]pyridine-3-carboxamide], the inhibition constant Ki at DDR1 [1] and at DDR2 [2] was under 25 nM each time. Besides, the IC50 against DDR1 [3] and at DDR2 [4] was under 25 nM throughout.
For the molecule `Cc1cn(-c2cc(NC(=O)c3csc4c3CCN(C(=O)c3cnc5ccccn35)C4C)cc(C(F)(F)F)c2)cn1` (centres unmarked) [Example 98, 6-(imidazo[1,2-a]pyridine-3-carbonyl)-7-methyl-N-(3-(4-methyl-1H-imidazol-1-yl)-5-(trifluoromethyl)phenyl)-4,5,6,7-tetrahydrothieno[2,3-c]pyridine-3-carboxamide], the inhibition constant (Ki) on DDR1 [1] and at DDR2 [2] was under 25 nM in each case. For the same molecule, the IC50 on DDR1 [3] and at DDR2 [4] was under 25 nM throughout.
Turning to `O=C(Nc1cc(F)cc(C(F)(F)F)c1)c1csc2c1CCN(Cc1cnc3[nH]ncc3c1)C2` [Example 67, 6-((1H-pyrazolo[3,4-b]pyridin-5-yl)methyl)-N-(3-fluoro-5-(trifluoromethyl)phenyl)-4,5,6,7-tetrahydrothieno[2,3-c]pyridine-3-carboxamide], the inhibition constant (Ki) at DDR1 [1] and on DDR2 [2] was under 25 nM each time. The values for the IC50 at DDR1 [3] and on DDR2 [4] were under 25 nM and 25 to 50 nM, respectively.
As for `O=C(Nc1cccc(OC(F)(F)F)c1)c1csc2c1CCN(Cc1cnc3[nH]ncc3c1)C2` [Example 66, 6-((1H-pyrazolo[3,4-b]pyridin-5-yl)methyl)-N-(3-(trifluoromethoxy)phenyl)-4,5,6,7-tetrahydrothieno[2,3-c]pyridine-3-carboxamide], the Ki on DDR1 [1] and at DDR2 [2] was under 25 nM in each case. Also, the half-inhibitory concentration (IC50) on DDR1 [3] and on DDR2 [4] was under 25 nM throughout.
With `O=C(Nc1cccc(OC(F)(F)F)c1)c1csc2c1CCN(C(=O)c1cnc3ccccn13)C2` [Example 8, 6-(imidazo[1,2-a]pyridine-3-carbonyl)-N-(3-(trifluoromethoxy)phenyl)-4,5,6,7-tetrahydrothieno[2,3-c]pyridine-3-carboxamide], the inhibitory constant (Ki) at DDR1 [1] and at DDR2 [2] was under 25 nM in each case. In addition, the IC50 against DDR1 [3] and on DDR2 [4] was under 25 nM throughout.
